Columns and labels:
[1] = tested on: 5-LO; experiment: Test c): ex vivo assay after oral administration, A23187 challenge of blood, LTB4 radioimmunoassay; format: in vivo
Method: c) An ex vivo assay system, which is a variation of test b) above, involving administration of a test compound (usually orally as the suspension produced when a solution of the test compound in dimethylsulphoxide is added to carboxymethylcellulose), blood collection, heparinisation, challenge with A23187 and radioimmunoassay of LTB4 and TxB2. This test provides an indication of the bioavailability of a test compound as an inhibitor of 5-LO or cyclooxygenase.

[2] = tested on: 5-LO; experiment: Test b): heparinised human blood, A23187 challenge, LTB4 radioimmunoassay; format: cell-based
Method: (§1) b) An in vitro assay system involving incubating a test compound with heparinised human blood, prior to challenge with the calcium ionophore A23187 and then indirectly measuring the inhibitory effects on 5-LO by assaying the amount of […] using the specific radioimmunoassay described by Carey and Forder (F. Carey and R.A. Forder, Brit. J. Pharmacol. 1985, 84, 34P) which involves the use of a protein-LTB4 conjugate produced using the procedure of Young et alia (Prostaglandins, 1983, 26(4), 605-613). The effects of a test compound on the enzyme cyclooxygenase (which is involved in the alternative metabolic pathway for arachidonic acid and gives rise to prostaglandins, thromboxanes and related metabolites) may be measured at the same time using the specific radioimmunoassay for thromboxane B2 (TxB2) described by Carey and Forder (see above). This test provides an indication of the effects of a test compound against 5-LO and also cyclooxygenase in the presence of blood cells and proteins. It permits the selectivity of the inhibitory effect on 5-LO or cyclooxygenase to be assessed.

[3] = tested on: cyclooxygenase; experiment: Test b): heparinised human blood, A23187 challenge, TxB2 radioimmunoassay; format: cell-based
Method: as §1

CO[C@@H]1CCC[C@]1(OC)c1cccc(OCc2ccc3ccccc3c2)c1 (relative stereo) [trans-1,2-dimethoxy-1-[3-(naphth-2-ylmethoxy)phenyl]cyclopentane]
ED50 [1]: < 100 mg/kg | IC50 [2]: 200 nM | IC50 [3]: > 40000 nM
